ChEMBL document CHEMBL3734659, “Identification of tris-(phenylalkyl)amines as new selective h5-HT2Breceptor antagonists” (Medchemcomm, 2015)
The source made the active and inactive calls. The calls are words filed in the database; no cut-off is given here.

Key:
[1] = molecular target: T1, 5-hydroxytryptamine receptor 2C (Homo sapiens) (UniProt P28335); experiment: Displacement of [3H]mesulergine from human recombinant 5-HT2C receptor expressed in Flp-IN HEK cell membrane at 10 uM after 90 mins by scintillation counting method; assay type: cell membranes; conditions: HEK293
T1 sequence (whole entry): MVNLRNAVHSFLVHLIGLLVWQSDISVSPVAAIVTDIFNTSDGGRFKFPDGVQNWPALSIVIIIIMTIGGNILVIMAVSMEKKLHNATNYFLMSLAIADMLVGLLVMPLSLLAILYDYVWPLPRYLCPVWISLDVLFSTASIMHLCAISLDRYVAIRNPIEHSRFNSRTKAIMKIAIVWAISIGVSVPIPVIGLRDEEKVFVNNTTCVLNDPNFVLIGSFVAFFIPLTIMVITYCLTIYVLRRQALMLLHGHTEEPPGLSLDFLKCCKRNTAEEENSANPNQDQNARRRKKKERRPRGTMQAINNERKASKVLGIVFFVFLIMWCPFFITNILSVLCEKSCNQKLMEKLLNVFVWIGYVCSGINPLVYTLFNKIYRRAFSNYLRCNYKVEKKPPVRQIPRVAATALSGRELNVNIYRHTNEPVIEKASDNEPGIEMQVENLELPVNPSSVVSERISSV

HEK293 [2] = experiment: Selectivity ratio of Ki for human recombinant 5-HT2A receptor expressed in HEKT cell membrane to Ki for human recombinant 5-HT2B receptor stably expressed in HEK cells; assay type: cell-based
[3] = molecular target: T2, 5-hydroxytryptamine receptor 2B (Homo sapiens, UniProt P41595); experiment: Displacement of [3H]LSD from human recombinant 5-HT2B receptor stably expressed in HEK cell membrane after 90 mins by scintillation counting method; assay type: cell membranes, HEK293
[4] = molecular target: T2, 5-hydroxytryptamine receptor 2B; experiment: Antagonist activity at human recombinant 5-HT2B receptor expressed in Flp-In HEK cells at 10 uM in the presence of agonist preincubated for 10 mins by FLIPR based calcium mobilization assay; assay type: functional, cell-based; conditions: HEK293
HEK293 [5] = experiment: Selectivity ratio of Ki for human recombinant 5-HT2C receptor to Ki for human recombinant 5-HT2B receptor stably expressed in HEK cell membrane; assay type: cell-based
[6] = molecular target: T3, 5-hydroxytryptamine receptor 2A (Homo sapiens, UniProt P28223); experiment: Displacement of [3H]ketanserin from human recombinant 5-HT2A receptor expressed in HEKT cell membrane after 90 mins by scintillation counting method; assay type: cell-based
[7] = molecular target: T3, 5-hydroxytryptamine receptor 2A; experiment: Displacement of [3H]ketanserin from human recombinant 5-HT2A receptor expressed in HEKT cell membrane at 10 uM after 90 mins by scintillation counting method; assay type: cell membranes
[8] = molecular target: T2, 5-hydroxytryptamine receptor 2B; experiment: Agonist activity at human recombinant 5-HT2B receptor expressed in Flp-In HEK cells preincubated for 10 mins by FLIPR based calcium mobilization assay; assay type: functional, cell-based; conditions: HEK293
[9] = molecular target: T4, 5-hydroxytryptamine receptor 2C (Homo sapiens, UniProt P28335); experiment: Displacement of [3H]mesulergine from human recombinant 5-HT2C receptor expressed in Flp-IN HEK cell membrane after 90 mins by scintillation counting method; assay type: cell membranes, HEK293
T4 sequence (P28335 whole entry): T1 sequence (whole entry)

[10] = molecular target: T2, 5-hydroxytryptamine receptor 2B; experiment: Displacement of [3H]LSD from human recombinant 5-HT2B receptor stably expressed in HEK cell membrane at 10 uM after 90 mins by scintillation counting method; assay type: cell membranes; conditions: HEK293
[11] = molecular target: T2, 5-hydroxytryptamine receptor 2B; experiment: Antagonist activity at human recombinant 5-HT2B receptor expressed in Flp-In HEK cells in the presence of agonist preincubated for 10 mins by FLIPR based calcium mobilization assay; assay type: functional, cell-based, HEK293

T3 sequence (P28223 whole entry): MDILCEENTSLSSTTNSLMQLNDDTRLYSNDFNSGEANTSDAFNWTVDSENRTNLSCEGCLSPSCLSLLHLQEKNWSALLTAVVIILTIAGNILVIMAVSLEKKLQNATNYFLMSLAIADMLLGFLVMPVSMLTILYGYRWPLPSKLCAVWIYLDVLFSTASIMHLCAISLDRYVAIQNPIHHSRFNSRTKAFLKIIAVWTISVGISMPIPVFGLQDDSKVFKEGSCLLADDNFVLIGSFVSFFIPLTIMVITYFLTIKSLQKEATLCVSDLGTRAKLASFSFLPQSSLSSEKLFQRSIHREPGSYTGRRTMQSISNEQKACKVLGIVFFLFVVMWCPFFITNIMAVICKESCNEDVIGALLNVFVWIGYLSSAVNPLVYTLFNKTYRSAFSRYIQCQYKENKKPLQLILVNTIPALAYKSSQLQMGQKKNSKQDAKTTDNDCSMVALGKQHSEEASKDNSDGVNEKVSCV
T2 sequence (P41595 whole entry): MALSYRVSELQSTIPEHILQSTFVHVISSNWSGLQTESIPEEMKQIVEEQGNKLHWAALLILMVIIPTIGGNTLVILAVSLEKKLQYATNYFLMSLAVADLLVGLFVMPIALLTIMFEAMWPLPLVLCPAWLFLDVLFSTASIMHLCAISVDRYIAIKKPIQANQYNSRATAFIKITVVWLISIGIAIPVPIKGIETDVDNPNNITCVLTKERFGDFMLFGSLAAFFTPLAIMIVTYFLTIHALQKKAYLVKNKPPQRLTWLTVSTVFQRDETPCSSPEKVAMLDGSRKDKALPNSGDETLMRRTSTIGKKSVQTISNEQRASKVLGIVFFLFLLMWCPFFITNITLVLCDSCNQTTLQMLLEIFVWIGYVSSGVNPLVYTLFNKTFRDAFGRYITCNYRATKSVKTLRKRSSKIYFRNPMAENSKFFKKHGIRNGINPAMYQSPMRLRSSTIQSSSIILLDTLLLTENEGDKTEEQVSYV

COc1cccc(CCCN(CCc2ccc(OC)c(OC)c2)Cc2ccc3c(c2)OCO3)c1
inhibition [1]: > 50%
Ratio Ki (HEK293 [2]): 26
Ki [3]: 0.059 µM
Activity [4]: inactive
Ratio Ki (HEK293 [5]): 2
Ki [6]: 1.51 µM
inhibition [7]: > 50%
Activity [8]: inactive
Ki ([9]; read-out: Ki): 0.103 µM
inhibition [10]: > 50%

COc1ccc(CCCN(CCc2ccc(OC)c(OC)c2)CCc2ccc3c(c2)OCO3)cc1
inhibition [1]: > 50%
Ratio Ki (HEK293 [2]): 39
Ki [3]: 0.0068 µM
Ratio Ki (HEK293 [5]): 30
Ki [6]: 0.267 µM
inhibition [7]: > 50%
IC50 [11]: 3.98 µM
Activity [8]: inactive
Ki ([9]; read-out: Ki): 0.206 µM
inhibition [10]: > 50%

COc1ccc(CCN(CCc2ccccc2)CCc2ccc3c(c2)OCO3)cc1OC
inhibition [1]: > 50%
Ratio Ki (HEK293 [2]): 87
Ki [3]: 0.017 µM
Ratio Ki (HEK293 [5]): 41
Ki [6]: 1.47 µM
inhibition [7]: > 50%
IC50 [11]: 10 µM
Activity [8]: inactive
Ki ([9]; read-out: Ki): 0.69 µM
inhibition [10]: > 50%

COc1ccc(CCN(CCc2ccc3c(c2)OCO3)Cc2ccccc2)cc1OC
inhibition [1]: > 50%
Ratio Ki (HEK293 [2]): 60
Ki [3]: 0.059 µM
Ratio Ki (HEK293 [5]): 19
Ki [6]: 3.53 µM
inhibition [7]: > 50%
Activity [8]: inactive
Ki ([9]; read-out: Ki): 1.09 µM
inhibition [10]: > 50%

COc1ccc(OC)c(CCCN(CCc2ccc(OC)c(OC)c2)CCc2ccc3c(c2)OCO3)c1
inhibition [1]: > 50%
Ratio Ki (HEK293 [2]): 26
Ki [3]: 0.036 µM
Ratio Ki (HEK293 [5]): 8
Ki [6]: 0.919 µM
inhibition [7]: > 50%
IC50 [11]: 7.94 µM
Activity [8]: inactive
Ki ([9]; read-out: Ki): 0.273 µM
inhibition [10]: > 50%

COc1ccccc1CCCN(CCc1ccc(OC)c(OC)c1)CCc1ccc2c(c1)OCO2
inhibition [1]: > 50%
Ratio Ki (HEK293 [2]): 24
Ki [3]: 0.0058 µM
Ratio Ki (HEK293 [5]): 21
Ki [6]: 0.14 µM
inhibition [7]: > 50%
IC50 [11]: 10 µM
Activity [8]: inactive
Ki ([9]; read-out: Ki): 0.123 µM
inhibition [10]: > 50%

COc1ccc(CCN(CCCc2cc(OC)c(OC)c(OC)c2)Cc2ccc3c(c2)OCO3)cc1OC
Ki [3]: 0.231 µM
Ki [6]: 2.23 µM
inhibition [7]: > 50%
IC50 [11]: 12.6 µM
Activity [8]: inactive
Ki ([9]; hek293): Not Active
inhibition [10]: > 50%

Cn1ccc2cc3c(cc21)CCN3C(=O)Nc1cccnc1
Ki [3]: 0.021 µM

COc1cccc(CCCN(CCc2ccc(OC)c(OC)c2)CCc2ccc3c(c2)OCO3)c1
inhibition [1]: > 50%
Ratio Ki (HEK293 [2]): 43
Ki [3]: 0.0046 µM
Ratio Ki (HEK293 [5]): 24
Ki [6]: 0.2 µM
inhibition [7]: > 50%
IC50 [11]: 1.26 µM
Activity [8]: inactive
Ki ([9]; read-out: Ki): 0.108 µM
inhibition [10]: > 50%

Cc1nc2sccn2c(=O)c1CCN1CCC(=C(c2ccc(F)cc2)c2ccc(F)cc2)CC1 [RITANSERIN]
Ki ([9]; read-out: Ki): 0.0018 µM

COc1ccc(CCN(CC/C=C\c2ccccc2)Cc2ccc3c(c2)OCO3)cc1OC
inhibition [1]: > 50%
Ratio Ki (HEK293 [2]): 11
Ki [3]: 0.021 µM
Ratio Ki (HEK293 [5]): 12
Ki [6]: 0.226 µM
inhibition [7]: > 50%
IC50 [11]: 6.31 µM
Activity [8]: inactive
Ki ([9]; read-out: Ki): 0.241 µM
inhibition [10]: > 50%

COc1ccc(CCN(CCCc2cc(OC)c(OC)c(OC)c2)CCc2ccc3c(c2)OCO3)cc1OC
inhibition [1]: > 50%
Ratio Ki (HEK293 [2]): 36
Ki [3]: 0.0041 µM
Ratio Ki (HEK293 [5]): 47
Ki [6]: 0.146 µM
inhibition [7]: > 50%
IC50 [11]: 1.26 µM
Activity [8]: inactive
Ki ([9]; read-out: Ki): 0.194 µM
inhibition [10]: > 50%
